The source of these data is patent US8791269B2, “Complex of amorphous tomoxiprole and cyclodextrin with fast dissolution rate and process for the preparation thereof” (Fondazione Istituto Insubrico di Ricerca per la Vita, priority 2011, dated 2014).

A short description of one series: in vivo. The note with it: rat, po, 5 mg/kg. Here is the method: To assess whether the faster dissolution rate observed for the complex actually corresponds to a faster in vivo absorption, the pharmacokinetic behaviour of tomoxiprole (TMX) and tomoxiprole-2-hydroxypropyl-beta-cyclodextrin complex (TMX/HPBCD) in rats have been compared.
Experimental design: Two groups of four rats each have been used. To the rats of each group was orally given either a dose of 5 mg/Kg of tomoxiprole or a dose of complex tomoxiprole-2-hydroxypropyl-beta-ciclodestrin corresponding to 5 mg/Kg of active substance. […] Samples of blood were collected at 0.3, 0.6, 1, 1.5, 2 and 6 hours, and plasma separated by centrifugation. Sample processing and HPLC analyses were performed as previously described (A. Bernareggi et al. J. liquid chromatography 1984, 7, 2093-2101). The pharmacokinetic parameters calculated from the plasma levels of tomoxiprole observed with the two formulations are reported in the following Table 2

Series [1] can be described thus: Dissolution rate in buffer solution HCl-KCl pH 1.5. It is filed as physicochemical. The conditions noted are these: for Substance dissolved (concentration of tomoxiprole): buffer HCl-KCl pH 1.5. On the procedure:
The dissolution rate of the complex tomoxiprole-2-hydroxypropyl-beta-cyclodextrin obtained in Example 1 is determined by the following method.
In a flask provided with magnetic mixer 600 mg of tomoxiprole-2-hydroxypropyl-beta-cyclodextrin complex (corresponding to 100 mg of tomoxiprole) are added to 10 ml of a buffer solution HCl—KCl pH 1.5. Samples of the suspension are collected at intervals of time, clarified by centrifugation and the tomoxiprole concentration in the clear supernatant is determined by UV absorption at 328 nm.
The method was the same of that described above, with the exception that 100 mg of tomoxiprole were added instead of 600 mg of complex tomoxiprole/HPBCD

For series [2] the following is noted: active doses; cited from earlier work.
Series [3] in a line: Surface wettability (water contact angle). It is filed as physicochemical. The conditions noted are these: at any pH.
The conditions of series [4]: orally administered; cited from earlier work.

For orientation: AUC means concentration integrated over time. The AUC(0-t) is the area under the concentration-time curve up to a stated or last time point. The low end stands for low exposure, the high end for high exposure. As usually defined, the Cmax is the peak of the concentration-time curve. Usually Tmax stands for the time at which the peak concentration occurs. The compound `COc1ccc(-c2nc3c4ccccc4ccc3n2C(C)C)cc1` [Tomoxiprole crystals, 2-(4-methoxyphenyl)-3-(1-methylethyl)-3H-naphth[1,2-d] imidazole] yielded an exposure (AUC) in the series “in vivo” of 46 ng·h/mL. In “in vivo”, this compound showed an AUC(0-t) of 1170 ng·h/mL. The same compound registered a peak concentration (Cmax) in “in vivo” of 220 ng/mL. The Tmax in the series “in vivo” is 1.5 h. Moreover, the “Time at which the saturation concentration is reached” value in series [1] (buffer pH 1.5) was “over 8 min”. The “Substance dissolved (concentration of tomoxiprole)” value in series [1] (time 0.5 min) came out at 1 mg/mL; in series [1] (time 2 min), 3 mg/mL; in series [1] (time 4 min), 4 mg/mL; in series [1] (time 8 min) it was 4.9 mg/mL; in series [1] (time 12 min) it was 5.2 mg/mL. Moreover, the Ulcerogenic activity entry in series [2] is “devoid of ulcerogenic activity”. Besides, the Water contact angle in series [3] was 81 °. In series [4], the “Time of maximum concentration in the blood after administration” value was “over one hour”.
